Assay results reported in patent US11548892B1, “Transglutaminase 2 (TG2) inhibitors” (Sitari Pharma, Inc., priority 2018, dated 2023).

Target: TG2 (Homo sapiens (Human), UniProt P21980)
Assay: Transglutaminase (TG) Inhibitor Assay
Format: biochemical
Details: fluorescence of dansyl cadaverine cross-linked into N,N-dimethylated casein; 8 point titration
Method: Using the fluorescent amine donor, dansyl cadaverine (DSC), and the multiple glutamine bearing amine acceptor N,N-dimethylated casein (NMC), TG activity was measured via the change in fluorescence of cross-linked DSC into NMC over time.

TG2, sequence (P21980 whole entry): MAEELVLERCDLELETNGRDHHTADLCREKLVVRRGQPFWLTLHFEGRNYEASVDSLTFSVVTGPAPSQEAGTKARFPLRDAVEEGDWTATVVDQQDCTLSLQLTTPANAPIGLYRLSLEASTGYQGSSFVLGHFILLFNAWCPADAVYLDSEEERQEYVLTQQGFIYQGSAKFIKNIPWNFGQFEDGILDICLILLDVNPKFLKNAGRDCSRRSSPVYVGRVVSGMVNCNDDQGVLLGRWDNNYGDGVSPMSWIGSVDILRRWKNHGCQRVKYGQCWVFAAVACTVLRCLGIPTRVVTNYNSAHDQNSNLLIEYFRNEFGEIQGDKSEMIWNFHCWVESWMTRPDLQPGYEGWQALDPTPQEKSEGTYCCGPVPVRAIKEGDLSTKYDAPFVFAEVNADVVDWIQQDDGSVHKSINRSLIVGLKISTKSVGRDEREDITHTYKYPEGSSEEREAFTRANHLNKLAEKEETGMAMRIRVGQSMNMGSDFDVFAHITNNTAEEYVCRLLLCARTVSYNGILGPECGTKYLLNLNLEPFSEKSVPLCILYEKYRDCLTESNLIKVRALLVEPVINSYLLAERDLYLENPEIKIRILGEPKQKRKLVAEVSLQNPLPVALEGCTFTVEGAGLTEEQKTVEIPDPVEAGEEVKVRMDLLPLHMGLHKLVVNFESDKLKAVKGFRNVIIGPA

First: CC(C)Cc1cccc2c1nc(Cn1cccc(NC(=O)[C@H](CC/C=C/C(N)=O)NC(=O)OCc3ccccc3)c1=O)n2C(=O)OC(C)(C)C [Compound 3]
Second: COC(=O)N[C@@H](CC/C=C/C(=O)N(C)C)C(=O)Nc1cccn(Cc2nc3c(CC(C(F)(F)F)C(F)(F)F)cccc3n2C(=O)OC(C)(C)C)c1=O [Compound 148, (S,E)-tert-butyl 2-((3-(7-(dimethylamino)-2-((methoxycarbonyl)amino)-7-oxohept-5-enamido)-2-oxopyridin-1(2H)-yl)methyl)-4-(3,3,3-trifluoro-2-(trifluoromethyl)propyl)-1H-benzo[d]imidazole-1-carboxylate]
The IC50 of the first is lower: under 500 nM for the first, 500 to 5000 nM for the second.

First: [2H]C([2H])(C/C=C/C(=O)N(C)C)C(OC(=O)N(C)C)C(=O)Nc1cccn(Cc2nc3cc(F)ccc3[nH]2)c1=O (stereo not drawn) [Compound 54]
Second: [2H]C([2H])(C/C=C/C(=O)N(C)C)C(OC(=O)N(C)C)C(=O)Nc1cccn(Cc2cc3cc(F)cc(CC(C)C)c3[nH]2)c1=O (stereo not drawn) [Compound 308]
The IC50 of the first is higher: 500 to 5000 nM for the first, under 500 nM for the second. The second is the more potent here.

First: [2H]C([2H])(C/C=C/C(=O)N(C)C)C(OC(=O)N(C)C)C(=O)Nc1cccn(Cc2nc3cc(F)ccc3[nH]2)c1=O (stereo not drawn) [Compound 55]
Second: [2H]C([2H])(C/C=C/C(=O)N(C)C)C(OC(=O)N(C)C)C(=O)Nc1cccn(Cc2cc3cc(F)ccc3n2C(=O)OC(C)(C)C)c1=O (stereo not drawn) [Compound 224]
The IC50 of the first is higher: 500 to 5000 nM for the first, under 500 nM for the second. The second is the more potent here.

`CN(C)C(=O)/C=C/CC[C@H](OC(=O)N(C)C)C(=O)Nc1ccnn(Cc2nc3cc(F)cc(CC(C)(C)C)c3[nH]2)c1=O` [Compound 85, [(E,1S)-6-(dimethylamino)-1-[[2-[[7-(2,2-dimethylpropyl)-5-fluoro-1H-benzimidazol-2-yl]methyl]-3-oxo-pyridazin-4-yl]carbamoyl]-6-oxo-hex-4-enyl]N,N-dimethylcarbamate] and `CC(C)Cn1c(Cn2ccnc(NC(=O)[C@H](CC/C=C/C(=O)N(C)C)OC(=O)N(C)C)c2=O)cc2cc(F)ccc21` [Compound 344, [(E,1S)-6-(dimethylamino)-1-[[4-[(5-fluoro-1-isobutyl-indol-2-yl)methyl]-3-oxo-pyrazin-2-yl]carbamoyl]-6-oxo-hex-4-enyl]N,Ndimethylcarbamate] cannot be ordered by IC50: under 500 nM for the first, under 500 nM for the second.

`COC(=O)N[C@@H](CC/C=C/C(=O)N(C)C)C(=O)Nc1cncn(Cc2nc3c(CCC(F)(F)F)cc(F)cc3n2C(=O)OC(C)(C)C)c1=O` [Compound 102, tert-butyl 2-[[5-[[(E,2S)-7-(dimethylamino)-2-(methoxycarbonylamino)-7-oxo-hept-5-enoyl]amino]-6-oxo-pyrimidin-1-yl]methyl]-6-fluoro-4-(3,3,3-trifluoropropyl)benzimidazole-1-carboxylate] and `COC(=O)N[C@@H](CC/C=C/C(=O)N(C)C)C(=O)Nc1cncn(Cc2nc3cc(F)cc(CCC(F)(F)F)c3[nH]2)c1=O` [Compound 103, methyl N-[(E,1S)-6-(dimethylamino)-1-[[1-[[5-fluoro-7-(3,3,3-trifluoropropyl)-1H-benzimidazol-2-yl]methyl]-6-oxo-pyrimidin-5-yl]carbamoyl]-6-oxo-hex-4-enyl]carbamate] cannot be ordered by IC50: under 500 nM for the first, under 500 nM for the second.

First: COC(=O)N(C)[C@@H](CC/C=C/C(=O)N(C)C)C(=O)Nc1cccn(Cc2nc3cccc(OCc4ccc(F)cc4F)c3[nH]2)c1=O [Compound 115, methyl (S,E)-methyl(1-((1-((7-((2,4-difluorobenzyl)oxy)-1H-benzo[d]imidazol-2-yl)methyl)-2-oxo-1,2-dihydropyridin-3-yl)amino)-7-(dimethylamino)-1,7-dioxohept-5-en-2-yl)carbamate]
Second: CN(C)C(=O)/C=C/CC[C@H](OC(=O)N(C)C)C(=O)Nc1cccn(Cc2nc3cc(F)ccc3n2Cc2ccc(F)cc2)c1=O [Compound 207]
The IC50 of the first is lower: under 500 nM for the first, 500 to 5000 nM for the second.

First: CN(C)C(=O)/C=C/CC[C@H](NC(=O)OC(C)(C)C)C(=O)Nc1cccn(Cc2nc3cccc(C(O)C(C)(C)C)c3[nH]2)c1=O (stereo partly drawn) [Compound 160, tert-butyl ((2S,E)-7-(dimethylamino)-1-((1-((7-(1-hydroxy-2,2-dimethylpropyl)-1H-benzo[d]imidazol-2-yl)methyl)-2-oxo-1,2-dihydropyridin-3-yl)amino)-1,7-dioxohept-5-en-2-yl)carbamate]
Second: COC(=O)N[C@@H](CC/C=C/C(=O)N(C)C)C(=O)Nc1cccn(Cc2nc3c(N(C)C)nc(C)nc3[nH]2)c1=O [Compound 504]
The IC50 of the first is lower: under 500 nM for the first, 500 to 5000 nM for the second.

First: COC(=O)N[C@@H](CC/C=C/C(=O)N(C)C)C(=O)Nc1cncn(Cc2nc3cc(F)ccc3n2C)c1=O [Compound 174, methyl N-[(E,1S)-6-(dimethylamino)-1-[[1-[(5-fluoro-1-methyl-benzimidazol-2-yl)methyl]-6-oxo-pyrimidin-5-yl]carbamoyl]-6-oxo-hex-4-enyl]carbamate]
Second: COC(=O)N[C@@H](CC/C=C/C(=O)N(C)C)C(=O)Nc1cccn(Cc2cc3c(F)cnc(C=C(C)C)c3[nH]2)c1=O [Compound 501]
The IC50 of the first is higher: 5000 to 100000 nM for the first, under 500 nM for the second.

`CN(C)C(=O)/C=C/CC[C@H](OC(=O)N(C)C)C(=O)Nc1cccn(Cc2nc3ccc(F)cc3n2Cc2ccccc2)c1=O` [Compound 202, [(E,1S)-1-[[1-[(1-benzyl-6-fluoro-benzimidazol-2-yl)methyl]-2-oxo-3-pyridyl]carbamoyl]-6-(dimethylamino)-6-oxo-hex-4-enyl]N,N-dimethylcarbamate] and `CN(C)C(=O)/C=C/CC[C@H](OC(=O)N(C)C)C(=O)Nc1cccn(Cc2nc3ccc(F)cc3n2Cc2ccc(F)cc2)c1=O` [Compound 208] fall in the same range of IC50: 500 to 5000 nM for the first, 500 to 5000 nM for the second.

`[2H]C([2H])(C/C=C/C(=O)N(C)C)C(OC(=O)N(C)C)C(=O)Nc1cccn(Cc2cc3cccc(CC(C)C)c3n2C(=O)OC(C)(C)C)c1=O` (stereo not drawn) [Compound 247] and `[2H]C([2H])(C/C=C/C(=O)N(C)C)C(OC(=O)N(C)C)C(=O)Nc1cccn(Cc2cc3cc(F)cc(CC(C)C)c3n2C(=O)OC(C)(C)C)c1=O` (stereo not drawn) [Compound 307] fall in the same range of IC50: 500 to 5000 nM for the first, 500 to 5000 nM for the second.

Compared with `[2H]C([2H])(C/C=C/C(=O)N(C)C)C(OC(=O)N(C)C)C(=O)Nc1cccn(Cc2cc3cc(F)cc(OCc4ccc(F)cc4F)c3n2C(=O)OC(C)(C)C)c1=O` (stereo not drawn) [Compound 303], `COC(=O)N[C@@H](CC/C=C/C(=O)N(C)C)C(=O)Nc1cccn(Cc2nc3c(CC(C)C)c(F)cnc3[nH]2)c1=O` [Compound 525] is lower in IC50: 5000 to 100000 nM for the first, under 500 nM for the second.

`COC(=O)N[C@@H](CC/C=C/C(=O)N(C)C)C(=O)Nc1cccn(Cc2cc3ncnc(CC(C)C)c3[nH]2)c1=O` [Compound 459, methyl N-[(E,1S)-6-(dimethylamino)-1-[[1-[(4-isobutyl-5H-pyrrolo[3,2-d]pyrimidin-6-yl)methyl]-2-oxo-3-pyridyl]carbamoyl]-6-oxo-hex-4-enyl]carbamate] and `COC(=O)N[C@@H](CC/C=C/C(=O)N(C)C)C(=O)Nc1cccn(Cc2cc3ncc(F)c(CC4CCC4)c3[nH]2)c1=O` [Compound 585] cannot be ordered by IC50: under 500 nM for the first, under 500 nM for the second.

`COC(=O)N[C@@H](CC/C=C/C(=O)N(C)C)C(=O)Nc1cc(F)c(C)n(Cc2nc3c(F)cnc(CC(C)C)c3[nH]2)c1=O` [Compound 583] and `COCc1ccc(NC(=O)[C@H](CC/C=C/C(=O)N(C)C)NC(=O)OC)c(=O)n1Cc1nc2c(F)cnc(CC(C)C)c2[nH]1` [Compound 599] cannot be ordered by IC50: under 500 nM for the first, under 500 nM for the second.

Same assay, conditions: fluorescence of dansyl cadaverine cross-linked into N,N-dimethylated casein; 8 point titration; listed as 101

Work on `COCc1ccc(NC(=O)[C@H](CC/C=C/C(=O)N(C)C)NC(=O)OC)c(=O)n1Cc1nc2c(F)cnc(CC(C)C)c2[nH]1` [Compound 599] yielded an IC50 of 500 to 5000 nM.
